Test systems include SK-MEL-28 melanoma; UO-31 renal; RPMI-8226 leukemia; OVCAR-5 ovarian; HCT-15 colon; SR leukemia; SK-MEL-5 melanoma; HL-60(TB) leukemia; LOX IMVI melanoma; DU-145 prostate.
What all share (assay): NCI anticancer screen, dose series, 48 h

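1) Cells in 96-well plates. 2) Compound, 48 h, 5 concentrations. 3) Linear interpolation between surrounding doses. 4) Unreached endpoint = highest concentration. GI50: concentration for 50% inhibition of growth. The concentration for full growth arrest is given as TGI.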

For the compound `Oc1c2c(c(O)c3ccccc13)=N[C@@H](c1ccccc1)[C@H](c1ccccc1)N=2`, the TGI in the experiment on SK-MEL-28 melanoma, in the experiment on UO-31 renal, with RPMI-8226 leukemia, with OVCAR-5 ovarian, in the experiment on HCT-15 colon and with SR leukemia was over 100 µM each time. Moreover, the TGI with SK-MEL-5 melanoma, in the experiment on HL-60(TB) leukemia and in the experiment with LOX IMVI melanoma was over 100 µM each time.
With `CCCS(=O)(=O)c1nc(NC2CC2)cc(-c2ccc3c(ccn3C3CC(C)(C)NC(C)(C)C3)c2)n1`, the GI50 was 1.6 µM in the experiment with UO-31 renal; 2 µM with RPMI-8226 leukemia; 1.57 µM in the experiment with HCT-15 colon; 1.71 µM in the experiment on DU-145 prostate; 0.256 µM in the experiment with SR leukemia; 1.72 µM with SK-MEL-5 melanoma. Besides, the GI50 in the experiment on HL-60(TB) leukemia is 1.75 µM; in the experiment with LOX IMVI melanoma, 1.67 µM. The TGI with UO-31 renal came out at 3.16 µM; in the experiment with RPMI-8226 leukemia it was 5.27 µM; in the experiment on HCT-15 colon, 3.12 µM; in the experiment on DU-145 prostate, 3.19 µM; in the experiment with SR leukemia, 0.784 µM; in the experiment with SK-MEL-5 melanoma, 3.15 µM. Besides, the figures for the TGI in the experiment with HL-60(TB) leukemia and in the experiment on LOX IMVI melanoma were 3.73 µM and 3.17 µM, respectively.
Regarding `CC1=Nc2c(ccc3c2C(=O)c2ccccc2C3=O)NC(c2ccncc2)C1` (stereo not given), the GI50 in the experiment on SK-MEL-28 melanoma is over 100 µM; in the experiment with RPMI-8226 leukemia it was 89.9 µM; in the experiment with SR leukemia, over 100 µM. For the same compound, the TGI in the experiment on SK-MEL-28 melanoma, in the experiment with UO-31 renal, in the experiment with RPMI-8226 leukemia, in the experiment on OVCAR-5 ovarian, in the experiment on HCT-15 colon and in the experiment on SK-MEL-5 melanoma was over 100 µM each time. Besides, the TGI with HL-60(TB) leukemia and in the experiment with LOX IMVI melanoma was over 100 µM each time.
With `CN(C)c1nc(-c2cccs2)n2nc(-c3ccc(Cl)cc3)cc2n1`, the GI50 in the experiment on SK-MEL-28 melanoma, in the experiment with RPMI-8226 leukemia, in the experiment with OVCAR-5 ovarian, in the experiment with HCT-15 colon, with DU-145 prostate and in the experiment with SR leukemia was over 100 µM throughout. Further, the GI50 in the experiment on HL-60(TB) leukemia was over 100 µM; in the experiment on LOX IMVI melanoma, 3.58 µM. Besides, the TGI in the experiment on SK-MEL-28 melanoma, with RPMI-8226 leukemia, in the experiment on OVCAR-5 ovarian, in the experiment on HCT-15 colon, in the experiment on DU-145 prostate and in the experiment on SR leukemia was over 100 µM throughout. Also, the TGI in the experiment with HL-60(TB) leukemia and with LOX IMVI melanoma was over 100 µM in each case.
Take `CCOC(=O)[C@@H](C)C[C@H](Cc1ccccc1)NC(=O)c1csc([C@@H](C[C@H](C(C)C)N(C)C(=O)[C@@H](NC(=O)[C@H]2CCCCN2C)C(C)(C)C)OC(C)=O)n1`: the GI50 is 0.00297 µM in the experiment on UO-31 renal; under 0.00167 µM with RPMI-8226 leukemia; under 0.00167 µM with OVCAR-5 ovarian; under 0.00167 µM with HCT-15 colon; under 0.00167 µM in the experiment with SR leukemia; under 0.00167 µM in the experiment on SK-MEL-5 melanoma. In addition, the GI50 in the experiment on HL-60(TB) leukemia and with LOX IMVI melanoma was under 0.00167 µM throughout. The TGI is over 10.8 µM in the experiment on UO-31 renal; over 6.36 µM in the experiment on RPMI-8226 leukemia; over 16.7 µM in the experiment on OVCAR-5 ovarian; over 16.7 µM in the experiment with HCT-15 colon; over 16.7 µM in the experiment on SR leukemia; 0.00254 µM in the experiment with SK-MEL-5 melanoma. The TGI in the experiment on HL-60(TB) leukemia was under 0.00167 µM; in the experiment with LOX IMVI melanoma it was over 16.7 µM.
Consider `C=C1CC(COc2cc(Cl)nc(N)n2)C1`, for which the GI50 in the experiment on UO-31 renal was 35.6 µM; in the experiment with RPMI-8226 leukemia, 21.7 µM; in the experiment on OVCAR-5 ovarian, 66.9 µM; in the experiment on HCT-15 colon, 33 µM; with DU-145 prostate, 47.7 µM; in the experiment with SR leukemia, 34.8 µM. Moreover, the GI50 in the experiment with SK-MEL-5 melanoma was 44.4 µM; with HL-60(TB) leukemia it was 35.1 µM. Further, the TGI in the experiment with RPMI-8226 leukemia was determined as 60.8 µM.
For `COc1ccc(/C=C/C(=O)c2sc(-n3nc(-c4ccccc4)cc3-c3ccccc3)nc2C)cc1OC`, the TGI in the experiment with SK-MEL-28 melanoma is over 100 µM; in the experiment on UO-31 renal it was over 100 µM; in the experiment on RPMI-8226 leukemia it was 70 µM; in the experiment on OVCAR-5 ovarian, 92.6 µM; in the experiment on HCT-15 colon, over 100 µM; with SR leukemia it was 78.2 µM. Further, the TGI was determined as 62.2 µM in the experiment on HL-60(TB) leukemia and 96.6 µM in the experiment on LOX IMVI melanoma.
As for `O=C1N[C@@H](O)[C@@H]2ON=C(c3ccccc3)[C@H]12`, the TGI in the experiment with SK-MEL-28 melanoma, in the experiment with UO-31 renal, with RPMI-8226 leukemia, with OVCAR-5 ovarian, with HCT-15 colon and with SR leukemia was over 100 µM in each case. Further, the TGI with SK-MEL-5 melanoma, with HL-60(TB) leukemia and in the experiment with LOX IMVI melanoma was over 100 µM each time.
With `CCOC(=O)Cc1nc(/C(C#N)=C/c2ccco2)[nH]c(=O)c1C#N`, the TGI in the experiment on UO-31 renal, with RPMI-8226 leukemia, in the experiment on OVCAR-5 ovarian, in the experiment on HCT-15 colon, in the experiment with SR leukemia and in the experiment with SK-MEL-5 melanoma was over 100 µM in each case. Further, the TGI in the experiment with HL-60(TB) leukemia and in the experiment on LOX IMVI melanoma was over 100 µM in each case.
On to `COC(=O)C(Cc1ccccc1)N/C=C\C(=O)c1ccc(Cl)cc1` (stereo not given), for which the GI50 in the experiment on SK-MEL-28 melanoma is 45.4 µM; in the experiment on UO-31 renal, 38.4 µM; in the experiment on RPMI-8226 leukemia, 36.7 µM; in the experiment with OVCAR-5 ovarian it was 24.9 µM; in the experiment on HCT-15 colon it was 23.6 µM; in the experiment on DU-145 prostate it was 31.5 µM. Also, the GI50 in the experiment on SR leukemia was 48.1 µM; in the experiment with SK-MEL-5 melanoma it was 19.3 µM; with LOX IMVI melanoma it was 19.6 µM. In addition, the TGI with SK-MEL-28 melanoma was over 100 µM; in the experiment on UO-31 renal it was over 100 µM; in the experiment on RPMI-8226 leukemia, over 100 µM; in the experiment on OVCAR-5 ovarian it was 74.4 µM; in the experiment on HCT-15 colon it was 59.3 µM; in the experiment on DU-145 prostate, over 100 µM. Further, the TGI with SR leukemia was over 100 µM; with SK-MEL-5 melanoma, 33.5 µM; with LOX IMVI melanoma it was 39.4 µM.
As for `Cc1sc(C)c(-c2ccc(CO)o2)c1-c1ccc(CO)o1`, the GI50 in the experiment with SK-MEL-28 melanoma is over 100 µM; in the experiment on UO-31 renal, 28.8 µM; in the experiment with RPMI-8226 leukemia, 13.5 µM; in the experiment on HCT-15 colon, over 76.6 µM; in the experiment on DU-145 prostate, over 100 µM; with SR leukemia, over 77.9 µM. The GI50 was over 61.5 µM in the experiment on SK-MEL-5 melanoma, 52.5 µM with HL-60(TB) leukemia and 94.3 µM in the experiment with LOX IMVI melanoma. In addition, the TGI in the experiment on SK-MEL-28 melanoma, in the experiment with UO-31 renal, with RPMI-8226 leukemia, with HCT-15 colon, with DU-145 prostate and with SR leukemia was over 100 µM each time. Moreover, the TGI in the experiment on SK-MEL-5 melanoma, in the experiment with HL-60(TB) leukemia and in the experiment with LOX IMVI melanoma was over 100 µM in each case.
Regarding `O=C1CCn2c([nH]c3cccc4cccc2c43)=N1`, the TGI with SK-MEL-28 melanoma, in the experiment on UO-31 renal, in the experiment on RPMI-8226 leukemia, with OVCAR-5 ovarian, in the experiment with HCT-15 colon and in the experiment with SR leukemia was over 100 µM in each case. Also, the TGI in the experiment with SK-MEL-5 melanoma, in the experiment with HL-60(TB) leukemia and with LOX IMVI melanoma was over 100 µM throughout.
As to `Cc1ccc2/c(=C/c3ccc(N(C)C)cc3)c3cc(-c4ccccc4)[n+](C)n3c2c1`, the GI50 with SK-MEL-28 melanoma is 0.146 µM; in the experiment with UO-31 renal it was 0.92 µM; in the experiment with OVCAR-5 ovarian, 0.456 µM; with HCT-15 colon, 0.824 µM; with DU-145 prostate, 0.0473 µM; with SR leukemia, under 0.01 µM. Further, the GI50 was 0.0344 µM in the experiment on SK-MEL-5 melanoma and under 0.01 µM in the experiment with LOX IMVI melanoma. For the same compound, the TGI with SK-MEL-28 melanoma is 3.7 µM; in the experiment with OVCAR-5 ovarian it was 4.74 µM; in the experiment on HCT-15 colon, over 100 µM; with DU-145 prostate, 4.37 µM; in the experiment on SK-MEL-5 melanoma, 0.169 µM; in the experiment with LOX IMVI melanoma, over 100 µM.
In the case of `CC1(C)CCc2cc3c(cc2O1)OCCC3=O`, the TGI in the experiment with UO-31 renal, in the experiment with RPMI-8226 leukemia, with OVCAR-5 ovarian, in the experiment with HCT-15 colon, in the experiment with SR leukemia and with SK-MEL-5 melanoma was over 100 µM throughout. Further, the TGI in the experiment with HL-60(TB) leukemia and in the experiment on LOX IMVI melanoma was over 100 µM each time.
For the compound `N#Cc1c(N)c(C(=O)O)nn(-c2cccc(C(F)(F)F)c2)c1=O`, the TGI in the experiment on SK-MEL-28 melanoma, in the experiment with UO-31 renal, in the experiment with RPMI-8226 leukemia, in the experiment on OVCAR-5 ovarian, with HCT-15 colon and in the experiment on SR leukemia was over 100 µM each time. In addition, the TGI in the experiment with SK-MEL-5 melanoma, with HL-60(TB) leukemia and in the experiment on LOX IMVI melanoma was over 100 µM each time.
With `COc1ccc(C2=NC(C)(C)CO2)cc1`, the TGI in the experiment on SK-MEL-28 melanoma, in the experiment on RPMI-8226 leukemia, in the experiment with OVCAR-5 ovarian, in the experiment with HCT-15 colon, in the experiment with SR leukemia and in the experiment on SK-MEL-5 melanoma was over 100 µM in each case. Also, the TGI in the experiment with HL-60(TB) leukemia and with LOX IMVI melanoma was over 100 µM in each case.
Take `NS(=O)(=O)c1ccc(NC(=O)c2cccc3c(=O)c4ccccc4[nH]c23)cc1`: the TGI is over 100 µM in the experiment on SK-MEL-28 melanoma; 67.8 µM in the experiment on UO-31 renal; over 100 µM in the experiment on RPMI-8226 leukemia; over 100 µM with OVCAR-5 ovarian; over 100 µM with HCT-15 colon; over 100 µM in the experiment with SR leukemia. In addition, the TGI in the experiment with SK-MEL-5 melanoma, in the experiment with HL-60(TB) leukemia and with LOX IMVI melanoma was over 100 µM in each case.

These data come from PubChem BioAssay (NCI).
